Assay results as given in patent US7041677B2, “Use of monochloroflosequinan in the treatment of sexual dysfunction” (R.T. Alamo Ventures I, LLC, priority 2002, dated 2006).
Blank lines part the entries; values can stand above or below the compound they belong to.

What was measured:
[1] = tested on: PDE4; experiment: PDE4 enzyme inhibition assay; assay type: biochemical, human; settings: 200 μM, 25° C., 1% DMSO vehicle
Text: (§1) In this example, a racemic mixture of monochloroflosequinan and the sulfone derivative of monochloroflosequinan were independently subjected to biochemical enzyme assays to determine their respective percent inhibition of a variety of phosphodiesterases (PDE1-PDE6). The methods used have been adapted from those described in the scientific literature, see Hidaka and Asano “Human blood platelet 3′:5′ cyclic nucleotide phosphodiesterase. Isolation of low-Km and high Km phosphodiesterase.” Biochem. Biophys. […] Unhydrolyzed cAMP was bound to AGI-X2 resin, and the remaining [^3H]adenosine in the aqueous phase was quantitated by scintillation counting. • PDE2: PDE2 partially purified from human platelets was used. […] Unhydrolyzed cAMP was bound to AGI-X2 resin, and the remaining [^3H]adenosine in the aqueous phase was quantitated by scintillation counting. • PDE3: PDE3 partially purified from human platelets was used. […] Unhydrolyzed cAMP was bound to AGI-X2 resin, and the remaining [^3H]adenosine in the aqueous phase was quantitated by scintillation counting. • PDE4: PDE4 partially purified from human U-937 pronocytic cells was used. […] Unhydrolyzed cAMP was bound to AGI-X2 resin, and the remaining [^3H]adenosine in the aqueous phase was quantitated by scintillation counting. • PDE5: PDE5 partially purified from human platelets was used. […]

[2] = molecular target: T1, PDE5 (Homo sapiens, UniProt O76074); experiment: PDE5 enzyme inhibition assay; assay type: biochemical; settings: 25° C., 1% DMSO vehicle
T1 construct: PDE5 partially purified from human platelets was used; from tissue; host or cells: human platelets
Text: as §1

[3] = molecular target: T2, PDE2 (Homo sapiens, UniProt O00408); experiment: PDE2 enzyme inhibition assay; assay type: biochemical; settings: 1% DMSO vehicle
T2 construct: PDE2 partially purified from human platelets was used; from tissue; host or cells: human platelets
Text: as §1

[4] = Plasma levels following oral administration; assay type: in vivo

T2 sequence (O00408 whole entry): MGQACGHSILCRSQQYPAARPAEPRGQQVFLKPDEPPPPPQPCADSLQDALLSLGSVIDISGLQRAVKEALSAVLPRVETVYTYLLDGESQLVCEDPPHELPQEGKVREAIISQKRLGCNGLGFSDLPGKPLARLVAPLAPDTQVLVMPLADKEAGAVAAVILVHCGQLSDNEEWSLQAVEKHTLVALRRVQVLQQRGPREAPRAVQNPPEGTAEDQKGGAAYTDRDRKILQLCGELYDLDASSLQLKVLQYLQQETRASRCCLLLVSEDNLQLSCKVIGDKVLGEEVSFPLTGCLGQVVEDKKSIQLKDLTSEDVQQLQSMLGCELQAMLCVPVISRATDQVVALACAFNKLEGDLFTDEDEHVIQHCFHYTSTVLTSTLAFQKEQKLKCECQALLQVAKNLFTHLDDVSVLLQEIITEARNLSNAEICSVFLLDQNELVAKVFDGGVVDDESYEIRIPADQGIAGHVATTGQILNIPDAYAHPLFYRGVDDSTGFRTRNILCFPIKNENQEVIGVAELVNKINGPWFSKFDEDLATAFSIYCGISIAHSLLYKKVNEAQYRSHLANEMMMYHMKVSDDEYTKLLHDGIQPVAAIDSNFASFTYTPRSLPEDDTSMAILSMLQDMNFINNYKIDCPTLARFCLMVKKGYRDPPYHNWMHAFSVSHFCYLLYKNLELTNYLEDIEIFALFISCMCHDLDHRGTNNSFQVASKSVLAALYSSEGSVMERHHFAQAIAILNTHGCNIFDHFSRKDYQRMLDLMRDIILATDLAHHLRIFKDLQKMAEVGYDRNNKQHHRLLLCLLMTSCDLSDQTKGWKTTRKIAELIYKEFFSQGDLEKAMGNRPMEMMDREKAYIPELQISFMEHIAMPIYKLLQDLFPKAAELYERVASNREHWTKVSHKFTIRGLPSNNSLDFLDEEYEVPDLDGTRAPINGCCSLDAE

inhibition of PDE4 [1]: greater than 50%
Structure (SMILES): Cn1cc([S@@+]([O-])CCl)c(=O)c2ccc(F)cc21 (single isomer, unassigned) [(−)-enantiomer of monochloroflosequinan]

inhibition of PDE5 ([2]; 200 μM): greater than 50%
inhibition of PDE2 ([3]; 200 μM, 25° C.): greater than 50%
time of peak plasma concentrations ([4]; following oral administration): 1 to 2 h
time of peak metabolite plasma levels ([4]; following oral dosage): about seven
Structure (SMILES): Cn1cc([S@+]([O-])CCl)c(=O)c2ccc(F)cc21 (single isomer, unassigned) [(+)-enantiomer of monochloroflosequinan]

inhibition of PDE5 ([2]; varying concentrations): greater than 50%
Structure (SMILES): Cn1cc([S+]([O-])C(Cl)Cl)c(=O)c2ccc(F)cc21 (stereo not shown) [dichloroflosequinan, 3-dichloromethylsulfinyl-7-fluoro-1-methyl-4-quinolone]

inhibition of PDE2 ([3]; 100 uM, 30° C.): Significant inhibition
Structure (SMILES): Cn1cc([S+]([O-])CCl)c(=O)c2ccc(F)cc21 (racemic) [monochloroflosequinan, 3-chloromethylsulfinyl-7-fluoro-1-methyl-4-quinolone]
